The test system of assay [1] is soybean event SF (vector 17147) expressing SEQ ID NO:24. The assay can be described thus: herbicide spray test on soybean events. In kind it is in vivo. Particulars: IFT 420 g/ha; event SF/SEQ#24; V2 growth stage; 14 DAT; average of n=7. From the text:
(§1) Each data point represents the average damage score from n=7 replicates.
(§2) These events were used to compare the performance of five 17147 events. Four of these, SF, S8, S7 and S3 had not been preselected for tolerance level (other than to confirm resistance, non-chimerical nature and the presence of the gene) while the remaining event, T0, had been preselected as the most resistant out of five 17147 events in a preliminary field test.
(§3) Plants were in 4×4×4 inch plastic pots and grown under a 15/9 hour light regime (daylight supplemented by artificial light in greenhouses) at a minimum night-time temperature of 18° C. and maximum daytime temperature of 27° C. Soil was regular VBRC mix (1:1 mixture of Vero field soil and Fafard Mix II) where Vero field soil is 98% sand and 2% clay. […] Spray volume was 150 L/ha and the damage scores reflect assessments at 14 DAT.

The test system of assay [2] is soybean event T0 (vector 17147) expressing SEQ ID NO:24. The assay is described as follows: herbicide spray test on soybean events. The assay is classed as in vivo. Particulars: IFT 420 g/ha; event T0/SEQ#24; V2 growth stage; 14 DAT; average of n=7.
Source text: as §1, §2, §3

The test system of assay [3] is soybean event 2 (vector 15764) expressing SEQ ID NO:14. The assay can be described thus: herbicide spray test on soybean events. The assay is classed as in vivo. The conditions noted are these: IFT 420 g/ha; event 2/SEQ#14; V2 growth stage; 14 DAT; average of n=7.
Source text: as §1, §2, §3

Assay [4] concerns soybean event S7 (vector 17147) expressing SEQ ID NO:24. The assay is described as follows: herbicide spray test on soybean events. The assay is classed as in vivo. Particulars: IFT 420 g/ha; event S7/SEQ#24; V2 growth stage; 14 DAT; average of n=7.
Source text: as §1, §2, §3

Assay [5] has as its system soybean event S3 (vector 17147) expressing SEQ ID NO:24. The assay can be described thus: herbicide spray test on soybean events. In kind it is in vivo. Particulars: IFT 420 g/ha; event S3/SEQ#24; V2 growth stage; 14 DAT; average of n=7.
Source text: as §1, §2, §3

For assay [6], the system named is soybean event S8 (vector 17147) expressing SEQ ID NO:24. The assay is described as follows: herbicide spray test on soybean events. In kind it is in vivo. Particulars: IFT 420 g/ha; event S8/SEQ#24; V2 growth stage; 14 DAT; average of n=7.
Source text: as §1, §2, §3

Assay [7] concerns soybean event 1 (vector 15764) expressing SEQ ID NO:14. The assay is described as follows: herbicide spray test on soybean events. The assay is classed as in vivo. The conditions noted are these: IFT 420 g/ha; event 1/SEQ#14; V2 growth stage; 14 DAT; average of n=7.
Source text: as §1, §2, §3

In assay [8] the target is HPPD SEQ ID NO:24 (Avena sativa, UniProt A0ACD5V6K6, DEL109-109/L359M). The assay is described as follows: biochemical. The assay is classed as binding. On the procedure: (§4) On rates (governed by an association rate constant, kon) for the formation of the enzyme: inhibitor complexes, EI and off rates (governed by a dissociation rate constant, koff) were determined by methods known in the art and essentially as described in Hawkes et al. (2001) Proc. Bright. Crop. Prot. Conf. Weeds, 2:563-568 and in PCT Patent App. Pub. No. WO 02/46387).
(§5) For example, on rates were measured by, at zero time, adding ˜60 pmoles HPPD to 50 mM BisTrisPropane buffer at pH7.0 and at 25° C. containing 25 mM Na ascorbate, 4 μg/ml bovine catalase (Sigma, St. Louis, Mo.) and an excess (˜300 pmoles) of ^14C inhibitor in a total assay volume of 425 μl and, at various time points (0-180 s), quenching the radiolabel binding reaction by addition and rapid mixing of 100 μl ‘cold’ 1 mM structure A. Protein samples quenched at different times were then exchanged into 50 mM BisTrisPropane buffer at pH 7.0 containing 0.1M KCl by rapid chromatography down a NAP5 G25 Sephadex column (GE Healthcare Ltd, Buckinghamshire UK) and the amount of ^14C bound to protein fractions quantified in Optiphase scintillant using a Tri-Carb 2900TR scintillation counter (Perkin Elmer, Wellesley, Mass.). The data were fit according to the scheme below in order to derive the value of the apparent second order rate constant, k2, governing the association rate of enzyme and radiolabelled inhibitor. A range of enzyme and inhibitor concentrations were used. […] Further example methods are described in PCT Patent App. Pub. No. WO 02/46387.
(§6) Off rates (k1 in the scheme below) were derived from exchange rate studies where either the test inhibitor, I, or its exchange partner, J were radiolabelled and the data fit according to the scheme below. As noted in Hawkes et al. (2001) Proc. Bright. Crop. Prot. Conf.
(§7) After 30 minutes the exchange reaction was initiated with addition of 100 μl 1 mM ‘cold’ structure A with thorough mixing, and, immediately, 150 μl were withdrawn and loaded onto a NAP5 column, the protein exchanged into 50 mM BisTrisPropane buffer at pH 7.0 containing 0.1M KCl by rapid (<2 min) chromatography down a NAP5 G25 Sephadex column (GE Healthcare Ltd, Buckinghamshire UK) and the amount of ^14C bound to protein measured by Optiphase scintillant using a Tri-Carb 2900TR scintillation counter (Perkin Elmer, Wellesley, Mass.). Further aliquots were removed and measured in the same way at various times over minutes or hours as required in order to determine the exchange kinetics.
(§8) After 30 minutes the reaction vessel was transferred to ice. After a further 10 minutes at ice temperature the exchange reaction was initiated by addition of 100 μl 1 mM Structure A, with thorough mixing, and 150 μl was withdrawn and loaded onto a NAP5 column in a cold room at ˜5-8° C. in order to quantify the amount of radiolabel remaining bound to the protein at various time from the start of exchange at ice temperature.
(§9) Off rates (k1) of HPPD inhibitors that are not available radiolabelled or that present other measurement problems (for example high levels of background non-specific protein-binding which can be measured as radiolabel binding that persists in the presence of high concentrations of ‘cold’ inhibitor) may be measured indirectly. […] Exemplary methods are also described in PCT Patent App. Pub. No. WO 02/46387.

Assay [9] has as its system Jack w/t. The assay is described as follows: herbicide spray test on soybean. In kind it is in vivo. The conditions noted are these: IFT 420 g/ha, V2 growth stage, 14 DAT, average of n=7. On the procedure: as §1, §3
Assay [10] addresses HPPD SEQ ID NO:22 (Avena sativa, UniProt A0ACD5V6K6, DEL109-109/L256M). The assay can be described thus: biochemical. In kind it is binding. On the procedure:
as §4, §5, §6, §7, §8, §9

The target of assay [11] is HPPD SEQ ID NO:14 (Avena sativa, UniProt A0ACD5V6K6, DEL109-109). The assay can be described thus: biochemical. In kind it is binding. As for the experimental part:
as §4, §5, §6, §7, §8, §9

Assay [12] has as its target HPPD SEQ ID NO:15 (Avena sativa, UniProt A0ACD5V6K6, DEL109-109/Q298A). The assay is described as follows: biochemical. In kind it is binding. As for the experimental part: as §4, §5, §6, §7, §8, §9
Assay [13] addresses HPPD SEQ ID NO:18 (Avena sativa, UniProt A0ACD5V6K6, DEL109-109/I285T). The assay can be described thus: biochemical. The assay is classed as binding. As for the experimental part:
as §4, §5, §6, §7, §8, §9

The target in assay [14] is HPPD SEQ ID NO:21 (Avena sativa, UniProt A0ACD5V6K6, DEL109-109/I285V). The assay can be described thus: biochemical. In kind it is binding. As for the experimental part: as §4, §5, §6, §7, §8, §9
The target in assay [15] is HPPD SEQ ID NO:23 (Avena sativa, UniProt A0ACD5V6K6, A242W/DEL109-109). The assay is described as follows: biochemical. The assay is classed as binding. As for the experimental part:
as §4, §5, §6, §7, §8, §9

Where two headings read alike, the source gives them in different places.

HPPD SEQ ID NO:21, sequence (A0ACD5V6K6 entry or part of it DEL109-109/I285V): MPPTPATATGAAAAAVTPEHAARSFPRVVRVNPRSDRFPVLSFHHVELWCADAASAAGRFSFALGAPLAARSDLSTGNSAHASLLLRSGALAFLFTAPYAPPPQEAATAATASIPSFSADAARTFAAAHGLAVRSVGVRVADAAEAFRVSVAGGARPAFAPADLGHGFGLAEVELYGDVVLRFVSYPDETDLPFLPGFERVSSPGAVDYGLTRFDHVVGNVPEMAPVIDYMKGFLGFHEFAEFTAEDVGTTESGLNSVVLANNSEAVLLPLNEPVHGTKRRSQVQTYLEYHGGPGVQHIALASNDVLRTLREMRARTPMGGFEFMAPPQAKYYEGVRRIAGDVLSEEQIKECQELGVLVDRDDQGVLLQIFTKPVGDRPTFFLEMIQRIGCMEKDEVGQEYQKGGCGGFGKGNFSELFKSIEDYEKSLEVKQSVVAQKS
HPPD SEQ ID NO:14, sequence (A0ACD5V6K6 entry or part of it DEL109-109): as the sequence (A0ACD5V6K6 entry or part of it DEL109-109/I285V) above, with V284I counted along it
HPPD SEQ ID NO:22, sequence (A0ACD5V6K6 entry or part of it DEL109-109/L256M): as the sequence (A0ACD5V6K6 entry or part of it DEL109-109/I285V) above, with L255M, V284I counted along it
HPPD SEQ ID NO:18, sequence (A0ACD5V6K6 entry or part of it DEL109-109/I285T): as the sequence (A0ACD5V6K6 entry or part of it DEL109-109/I285V) above, with V284T counted along it
HPPD SEQ ID NO:24, sequence (A0ACD5V6K6 entry or part of it DEL109-109/L359M): as the sequence (A0ACD5V6K6 entry or part of it DEL109-109/I285V) above, with V284I, L358M counted along it
HPPD SEQ ID NO:15, sequence (A0ACD5V6K6 entry or part of it DEL109-109/Q298A): as the sequence (A0ACD5V6K6 entry or part of it DEL109-109/I285V) above, with V284I, Q297A counted along it
HPPD SEQ ID NO:23, sequence (A0ACD5V6K6 entry or part of it DEL109-109/A242W): as the sequence (A0ACD5V6K6 entry or part of it DEL109-109/I285V) above, with A241W, V284I counted along it

Turning to `CS(=O)(=O)c1cc(C(F)(F)F)ccc1C(=O)c1cnoc1C1CC1` [IFT, isoxaflutole], the “% dam.” value in [1] is on record as 40%; in [2], 19.3%; in [3] it was 42.5%; in assay [4] it was 20.7%; in assay [5], 30%; in [6], 31.3%. Also, the “% dam.” value turned out to be 26.4% in assay [7] and 96.1% in assay [9]. Besides, in assay [8], the “SEQ ID NO:24 superior to SEQ ID NO:14 (in vitro, in particular off rate data)” value amounted to 2.3 fold.
For `CCOc1c(S(C)(=O)=O)ccc(C(=O)C2C(=O)CC(C)CC2=O)c1Cl` (stereo not shown) [Structure A], the dissociation constant Kd in [10] was 0.13 nM; in assay [11] (HPPD variant SEQ ID# 14, 25° C.), 0.2 nM; in [11] (estimated from on and off rates, 25° C.) it was 0.196 nM; in assay [12], 0.95 nM; in [13], 0.4 nM; in assay [8], 0.27 nM. For the same compound, the dissociation constant (Kd) came to 0.2 nM in assay [14] and 0.33 nM in assay [15]. For the same compound, the koff came to 1.08e-05 s⁻¹ in [10] (read-out: koff (k1)); 1.67e-05 s⁻¹ in [11] (25° C., direct, radiochemical method, average and individual experiments, read-out: Off rate k1); 1.67e-05 s⁻¹ in assay [11] (read-out: koff (k1)); 3.33e-05 s⁻¹ in assay [12] (read-out: koff (k1)); 1.67e-05 s⁻¹ in assay [13] (read-out: koff (k1)); 2.3e-05 s⁻¹ in assay [8] (read-out: koff (k1)). In addition, the koff in assay [14] (read-out: koff (k1)) came to 1.67e-05 s⁻¹; in assay [15] (read-out: koff (k1)) it was 2.83e-05 s⁻¹. Besides, the kon in [10] (read-out: kon (k2)) worked out at 85000 M⁻¹ s⁻¹; in [11] (25° C., direct, radiochemical method, average and individual experiments, read-out: On rate k2) it was 85000 M⁻¹ s⁻¹; in assay [11] (read-out: kon (k2)), 85000 M⁻¹ s⁻¹; in assay [12] (read-out: kon (k2)) it was 35000 M⁻¹ s⁻¹; in [13] (read-out: kon (k2)), 42000 M⁻¹ s⁻¹; in assay [8] (read-out: kon (k2)), 85000 M⁻¹ s⁻¹. Besides, the kon in assay [14] (read-out: kon (k2)) and in assay [15] (read-out: kon (k2)) was 85000 M⁻¹ s⁻¹ in each case. The Kd/Km ratio in assay [11] (HPPD SEQ ID NO:14) is reported as 0.000036.

In general, Kd refers to the concentration at which binding is half-saturated.
